Assay results: article PMC3583578 (Oncology Reports, 2012)

Experiments:
[1] = tested on: 26S protease (chymotrypsin, trypsin- and caspase-like activities); details: three proteolytic activities, dose-dependent; cited from earlier work
[2] = tested on: TNFα-induced NF-κB activation; assay: Luciferase-based in cellulo NF-κB reporter assay; format: cell-based, human; details: K562 cells after transfection

Row | SMILES | 26S protease inhibition activity (in words) [1] | Cytotoxicity at concentrations which inhibited NF-κB activation (in words) [2]
1 | O=C(/C=C/c1ccccc1)c1ccc(O)cc1 [Chalcone 7, 4′-Hydroxychalcone] | inhibition activity | 
2 | COc1cccc(/C=C/C(=O)c2ccccc2O)c1OC [Chalcone 16, 2,3-Dimethoxy-2′-hydroxychalcone] |  | cytotoxic
